Measured values taken from patent publication US20250241879A1, “CAPSAICIN SEQUENTIAL DOSING METHOD FOR TREATMENT OF KNEE JOINT PAIN” (priority 2018, published 2025).

What was measured:
[1] = tested on: human patients with chronic knee osteoarthritis; assay: Treatment-emergent adverse events, SAEs and laboratory abnormalities after single intra-articular injection (Example 2); assay type: in vivo; conditions: for All TEAEs, (%) / Arthralgia TEAE, (%) / Hepatic enzyme increased TEAE, (%) / Influenza TEAE, (%) / Joint effusion TEAE, (%) / Nasopharyngitis TEAE, (%) / Upper respiratory tract infection TEAE, (%): through 24 weeks
Method: Human patients experiencing osteoarthritic knee joint pain received either placebo, a 0.5 mg intra-articular injection of capsaicin into the osteoarthritic knee joint, or a 1.0 mg intra-articular injection of capsaicin into the osteoarthritic knee joint. […]
(§1) Human patients aged 45-80 years with chronic knee osteoarthritis, stable moderate to severe pain, and intolerability to analgesics were randomized to receive a single intra-articular injection of placebo into the osteoarthritic knee, a single intra-articular injection of a 0.5 mg dose of capsaicin into the osteoarthritic knee, or a single intra-articular injection of a 1.0 mg dose of capsaicin into the osteoarthritic knee.
(§2) Safety assessments included treatment-emergent adverse events (TEAEs), serious AEs (SAEs), laboratory abnormalities, and procedural pain ratings (none, mild, moderate, moderately severe, severe). The procedure pain ratings characterize the extent of transient burning sensation experienced by patients due to administration of capsaicin.

[2] = tested on: human patients with chronic knee osteoarthritis; assay: Procedural pain ratings (none, mild, moderate, moderately severe, severe) after intra-articular injection (Example 2); assay type: in vivo; conditions: 2 hours after injection of capsaicin (or placebo); all groups
Text: as §2

[3] = tested on: osteoarthritic knee joint pain; assay: Patient Global Impression of Change (PGIC), index knee (Example 2); assay type: in vivo, human; conditions: for PGIC: proportion of patients reporting significant improvement in the index knee: week 4, placebo 44%
Method: as §1
(§3) Patients completed Patient Global Impression of Change (PGIC; change vs baseline in index knee on 7-point scale: 1=very much improved; 7=very much worse, with scores of 1 or 2 indicating significant improvement) and Patient-specific Functional Scale (PSFS; rate≤3 important activities difficult to perform due to index knee pain on 0-10 scale: 0=able to perform; 10=unable to perform) at scheduled visits. Odds ratios for PGIC scores were calculated with chi-square tests. Changes in Western Ontario and McMaster Universities Osteoarthritis Index (WOMAC) B stiffness subscale and WOMAC C function subscale through week 24 were also assessed. PSFS, WOMAC B, and WOMAC C scores were evaluated using a mixed model for repeated measures. Statistical tests were 2-sided (alpha, P=0.10).

[4] = tested on: osteoarthritic knee joint pain; assay: Patient-specific Functional Scale (PSFS) (Example 2); assay type: in vivo, human
Method: as §1, §3

[5] = tested on: osteoarthritic knee joint pain; assay: WOMAC B stiffness subscale (Example 2); assay type: in vivo, human; conditions: 1.0 mg dose; through week 16; P=0.007
Method: as §1, §3

[6] = tested on: osteoarthritic knee joint pain; assay: WOMAC C function subscale (Example 2); assay type: in vivo, human; conditions: 1.0 mg dose; through week 16; P=0.02
Method: as §1, §3

[7] = tested on: human patients with bilateral knee osteoarthritis; assay: Procedure pain (NPRS) due to intraarticular trans-capsaicin, Breg pad vs ice pack cooling (Example 7); assay type: in vivo; conditions: Breg Knee WrapOn Polar Pad cooling compared to ice-pack cooling (Example 7)
Method: Human patients experiencing osteoarthritic knee joint pain were subjected to two different protocols for intraarticular administration of trans-capsaicin. Temporary pain expected due to administration of capsaicin was analyzed, along with the intraarticular temperature of the knee joint and the temperature of the patient's skin in the area to be cooled.
(§4) One of the protocols utilized a Breg Knee WrapOn Polar Pad (as illustrated in FIG. 1) that utilizes circulating ice-water to achieve cooling, where the pad is placed on skin surrounding the knee in order to cool the knee joint. The other protocol utilized ice-pack cooling, in which the patient's knee was wrapped with a stockinette and then the ice pack was positioned on top of the stockinette so that the ice pack is positioned over the patient's patella to thereby cool the knee joint. The ice pack was a LEADSTAR pain relief reusable cold therapy ice pack (size=6 inches). A temperature probe was placed into the intraarticular space of the patient's knee joint to measure intraarticular temperature of the knee joint. A temperature probe was also placed on the skin in the area to be cooled in order to measure skin temperature in the area to be cooled.
Five human patients suffering from moderate to severe painful bilateral knee osteoarthritis were recruited for this study evaluating the impact that cooling protocol has on the magnitude of temporary pain experienced by the patient due to administration of capsaicin. […] Patients that participated in the study passed the following screening criteria and meet the patient inclusion and exclusion criteria are set forth below. As part of patient screening, patients received an intradermal injection of 100 μL (100 μg) capsaicin into the non-dominant volar forearm. To be eligible to enter the study, patients were able to tolerate the capsaicin injection. Screening patients rated the pain from capsaicin injection at 5, 10, 20, and 30 minutes after injection using a 0-10 Numerical Pain Rating Scale, where “0” equals no pain and “10” equals worst possible pain.
as §4, with “ice pack (having a surface for application to the patient, wherein said surface has a diameter of approximately six inches) is positioned” for “ice pack is positioned”, “knee joint. A temperature” for “knee joint. The ice pack was a LEADSTAR pain relief reusable cold therapy ice pack (size=6 inches). A temperature”, “knee joint. At the discretion of the physician performing the procedure, in order to reduce discomfort for the patient, the protocol authorized the physician to instill a volume of 1-2 cc of 2% w/w lidocaine (without epinephrine) into the skin and subcutaneous tissue of the knee at the site of intra-articular probe insertion. A temperature” for “knee joint. A temperature”
One the first day of the study, patients were randomized so that (i) three patients receiving cooling of the knee joint using the Breg Knee WrapOn Polar Pad and (ii) two patients will receive ice-pack cooling over the patella as set forth above. Patients were subjected to the following procedure: • Placement of intraarticular temperature probe and skin temperature probe. […]

[8] = Capsaicin 1.0 mg Dose (n = 71), listed as capsaicin
[9] = Capsaicin at Either 0.5 mg or 1.0 Dose (n = 105)
[10] = Capsaicin at Either 0.5 mg or 1.0 Dose (n = 105), listed as capsaicin
[11] = Capsaicin at 0.5 mg Dose, Week 4
[12] = Capsaicin at 0.5 mg Dose, Week 8
[13] = Capsaicin at 0.5 mg Dose, Week 12
[14] = Capsaicin at 0.5 mg Dose, Week 16
[15] = Capsaicin at 0.5 mg Dose, Week 24
[16] = Capsaicin at 1.0 mg Dose, Week 4
[17] = Capsaicin at 1.0 mg Dose, Week 8
[18] = Capsaicin at 1.0 mg Dose, Week 12
[19] = Capsaicin at 1.0 mg Dose, Week 16
[20] = Capsaicin at 1.0 mg Dose, Week 24

COc1cc(CNC(=O)CCCCC=CC(C)C)ccc1O [Capsaicin, N-[(4-hydroxy-3-methoxyphenyl)methyl]-8-methylnon-6-enamide]
All TEAEs, (%) ([1]; Capsaicin 0.5 mg Dose (n = 34)): (47) % | Arthralgia TEAE, (%) ([1]; Capsaicin 0.5 mg Dose (n = 34)): (8.8) % | Hepatic enzyme increased TEAE, (%) ([1]; Capsaicin 0.5 mg Dose (n = 34)): (5.9) % | Influenza TEAE, (%) ([1]; Capsaicin 0.5 mg Dose (n = 34)): (2.9) % | Joint effusion TEAE, (%) ([1]; Capsaicin 0.5 mg Dose (n = 34)): (8.8) % | Nasopharyngitis TEAE, (%) ([1]; Capsaicin 0.5 mg Dose (n = 34)): (2.9) % | Upper respiratory tract infection TEAE, (%) ([1]; Capsaicin 0.5 mg Dose (n = 34)): (5.9) % | All TEAEs, (%) ([1]; Capsaicin 0.5 mg Dose (n = 34), listed as capsaicin): 47% | All TEAEs, (%) ([1]; Capsaicin 1.0 mg Dose (n = 71)): (30) % | Arthralgia TEAE, (%) ([1]; Capsaicin 1.0 mg Dose (n = 71)): (7.0) % | Hepatic enzyme increased TEAE, (%) ([1]; Capsaicin 1.0 mg Dose (n = 71)): (1.4) % | Influenza TEAE, (%) ([1]; Capsaicin 1.0 mg Dose (n = 71)): (2.8) % | Nasopharyngitis TEAE, (%) ([1]; Capsaicin 1.0 mg Dose (n = 71)): (2.8) % | Upper respiratory tract infection TEAE, (%) ([1]; Capsaicin 1.0 mg Dose (n = 71)): (4.2) % | All TEAEs, (%) [1, 8]: 30% | Arthralgia TEAE, (%) [1, 8]: 7.0% | All TEAEs, (%) [1, 9]: (35) % | Arthralgia TEAE, (%) [1, 9]: (7.6) % | Hepatic enzyme increased TEAE, (%) [1, 9]: (2.9) % | Influenza TEAE, (%) [1, 9]: (2.9) % | Joint effusion TEAE, (%) [1, 9]: (2.9) % | Nasopharyngitis TEAE, (%) [1, 9]: (2.9) % | Upper respiratory tract infection TEAE, (%) [1, 9]: (4.8) % | Arthralgia TEAE, (%) [1, 10]: 7.6% | Upper respiratory tract infection TEAE, (%) [1, 10]: 4.8% | Laboratory abnormalities ([1]; all groups, most mild and associated with comorbidities): Few laboratory abnormalities were observed | TEAEs mild in severity, patients ([1]; capsaicin 0.5 mg dose group): 29% | TEAEs moderate in severity, patients ([1]; capsaicin 0.5 mg dose group): 18% | Serious AEs (SAEs) ([1]; capsaicin 0.5 mg dose group, not considered treatment related): One SAE (shoulder pain from osteoarthritis) | TEAEs mild in severity, patients ([1]; capsaicin 1.0 mg dose group): 20% | TEAEs moderate in severity, patients ([1]; capsaicin 1.0 mg dose group): 9.9% | Tolerability / safety profile ([1]; single injection 1.0 mg dose, up to 24 weeks): well tolerated with a safety profile generally comparable to placebo | Patients reporting mild procedural pain [2]: 39% | Patients reporting no procedural pain [2]: 50% | PGIC: proportion of patients reporting significant improvement in the index knee ([3]; 0.5 mg dose, P=0.18): 58% | PGIC: proportion of patients reporting significant improvement in the index knee ([3]; 1.0 mg dose, P=0.01): 64% | PGIC: likelihood of significant improvement compared with placebo ([3]; 1.0 mg dose, weeks 4, 8 and 12): greater than two-fold likelihood | PGIC: Odds Ratio vs Placebo [3, 11]: 1.76 (P = 0.18) | PGIC: Odds Ratio vs Placebo [3, 12]: 1.89 (P = 0.14) | PGIC: Odds Ratio vs Placebo [3, 13]: 2.75 (P = 0.03) | PGIC: Odds Ratio vs Placebo [3, 14]: 2.37 (P = 0.05) | PGIC: Odds Ratio vs Placebo [3, 15]: 1.68 (P = 0.23) | PGIC: Odds Ratio vs Placebo [3, 16]: 2.34 (P = 0.01) | PGIC: Odds Ratio vs Placebo [3, 17]: 2.50 (P = 0.008) | PGIC: Odds Ratio vs Placebo [3, 18]: 2.40 (P = 0.01) | PGIC: Odds Ratio vs Placebo [3, 19]: 1.85 (P = 0.07) | PGIC: Odds Ratio vs Placebo [3, 20]: 1.64 (P = 0.15) | PSFS: ability to perform activities versus placebo ([4]; 1.0 mg dose, weeks 4-16): significantly improved patients' ability to perform activities versus placebo | PSFS: LSMD versus Placebo [4, 11]: 0.01 (P = 0.98) | PSFS: LSMD versus Placebo [4, 12]: −0.03 (P = 0.96) | PSFS: LSMD versus Placebo [4, 13]: −0.4 (P = 0.40) | PSFS: LSMD versus Placebo [4, 14]: −0.5 (P = 0.35) | PSFS: LSMD versus Placebo [4, 15]: −0.05 (P = 0.93) | PSFS: LSMD versus Placebo [4, 16]: −1.4 (P = 0.0006) | PSFS: LSMD versus Placebo [4, 17]: −0.9 (P = 0.03) | PSFS: LSMD versus Placebo [4, 18]: −1.1 (P = 0.007) | PSFS: LSMD versus Placebo [4, 19]: −0.9 (P = 0.04) | PSFS: LSMD versus Placebo [4, 20]: −0.5 (P = 0.27) | Improvement in physical function versus placebo ([4]; single injection 1.0 mg dose, moderate to severe osteoarthritis knee pain): statistically significant improvements in physical function for 12-16 weeks | WOMAC B score, least squares mean difference versus placebo [5]: −2.1 | WOMAC C score, least squares mean difference versus placebo [6]: −14.8 | Pain due to capsaicin injection, comparison of cooling methods [7]: less when Breg Knee WrapOn Polar Pad cooling was used
